System: epidermal cell renewal
Test: Epidermal cell renewal in vivo by the dihydroxyacetone test (DHA test)
Parameters: species or system human
Settings: for Development of luminescence (D15-D9) / Luminescence (AU) at D 15: 12 volunteers; for Luminescence (AU) at D 15: D15, 6 days after removal of the plasters, 3 mg/cm^2 daily; for Development of luminescence (D15-D9) % referring to control area: Wilcoxon T Test not significant
Method: Comparative in vivo tests were conducted to determine the accelerated epidermal cell renewal activity using 5 emulsions containing 0.2% by weight or 0.5% by weight vitamin A palmitate, 3% by weight or 5% by weight VITOPTINE® (extract of Vigna aconitifolia, Lab. Sero., Pulnoy) versus placebo.
Phase A and phase B were heated to 75° C. The aqueous phase was added to the fatty phase with continuous stirring and cooled to 60° C. by continued stirring. The combined phases were then homogenized for 2 mins. with an Ultraturrax. Finally, the active component is added with stirring and the whole is cooled to room temperature.
The study was carried out as a double blind study involving 12 female volunteers aged between 18 and 55 years.
The measurement parameter was the intensity of tanning of the skin after pigmenting with dihydroxyacetone. The decreasing tanning intensity corresponds to an increase in the renewal of the stratum corneum and the rate of the epidermal cell renewal cycle.
Eight areas (two groups of four) on the inside of the lower forearm were selected: • control area untreated and unpigmented by DHA, • area treated with placebo cream, • area treated with cream containing vitamin A palmitate • area treated with cream containing VITOPTINE®.
A standardized and randomized pretreatment with 3 mg/cm^2 of a preparation was carried out daily for 7 days. After the pretreatment, on day 8, DHA in the form of a face and body tanning lotion containing 5% by weight DHA was applied to the control and treated areas by an occlusive standardized process. On day 9, the occlusive plasters were removed. This was followed for another 6 days (days 10 to 15) by the same treatment as on days 1 to 7. The color intensity of the skin was determined immediately after removal of the plasters and 6 days later by colorimetric measurements (Minolta chromameter) via luminescence.
The first calculation (D15-D9) allowed evaluation of the development between day 9 (removal of the occlusive plasters) and day 15 (6 days after removal of the occlusive plasters). This development is representative of the epidermal cell renewal cycle. The greater the value, the higher the epidermal cell renewal.

Compound: CCCCCCCCCCCCCCCC(=O)OC/C=C(C)/C=C/C=C(C)/C=C/C1=C(C)CCCC1(C)C [vitamin A palmitate]
- Development of luminescence (D15-D9) (cream containing 0.2%): 3.53
- Luminescence (AU) at D 15 (cream containing 0.2%): 62.18 AU
- Development of luminescence (D15-D9) % referring to control area (cream containing 0.2%): 32 (ns) %
- Development of luminescence (D15-D9) (cream containing 0.5%): 3.79
- Luminescence (AU) at D 15 (cream containing 0.5%): 62.44 AU
- Development of luminescence (D15-D9) % referring to control area (cream containing 0.5%): 41 (ns) %

Reference: patent US8697151B2, “Use of an extract from the vigna aconitifolia plant in a cosmetic and/or dermopharmaceutical composition” (BASF Beauty Care Solutions France S.A.S., priority 2001, dated 2014)
